Assay results published in patent US6833445B2, “Guanidinylation, guanidinoglycosides, uses, and methods of assaying their activity” (The Regents of the University of California, priority 2000, dated 2004).

Tests used:
[1] = molecular target: HIV-1 Rev protein RNA recognition element (RRE); assay: Solid-phase assay: displacement of fluorescent Rev peptide from immobilized RRE; type: binding; conditions: for (e) Ratio (c)/(b): IC50 with polyA-polyU divided by IC50 without competitor, proportional to RRE selectivity; for activity in the presence of competing nucleic acids: competing DNA / tRNA; for change of ratio (c)/(b) upon guanidinylation: decrease = more selective for the RRE than amino precursor
Source text: To facilitate the discovery of active guanidinoglycosides an assay system using HIV-1 response elements can be used. For example, RRE-specific binders as well as TAR specific binders can be identified using the methods of the present invention. The present invention provides a rapid screening assay and method depicted in FIG. 4. The Rev-RRE assay relies on the release of a fluorescently tagged Rev fragment from an immobilized RRE-Rev complex and can be performed under various stringency levels. The assay can be conducted in the presence of competing RNA molecules, other potential cellular targets, or cellular extracts. Only high affinity ligands can effectively compete with the bound Rev34-50 peptide (Kd is approximately 1 nM), thus releasing the highly fluorescent molecules into solution. Non-selective binders will be scavenged by competitor molecules present in solution.
In one embodiment, the present invention provides an assay for identifying a test compound which binds to RRE. The assay includes an immobilized RRE, a detectably labeled Rev, and a test compound. A test compound that liberates the labeled Rev due to competitive binding to the RRE results in an increase in the labeled Rev in the supernatant of the assay. Accordingly, following incubation of immobilized RRE, a labeled Rev, and a test compound, the supernatant is measured and the amount of label in the supernatant is determined. The amount of label in the supernatant is indicative of the degree or ability of the test compound to bind to the RRE or REV polypeptide. By comparing the amount of label in the supernatant with the amount in a control or standard sample, one can identify a test compound which effectively competes with the Rev for binding to RRE. […] In the depicted embodiment of FIG. 4 the ternary complex containing a fluorescently tagged Rev peptide bound to an immobilized RRE is incubated with the test compound (e.g., a potential competitor, binding agent or inhibitor)under conditions and in the presence of competing RNA molecules n a microcentrifuge filter tube. After incubation, the mixture is filtered and the filtrate is illuminated. In the presence of a strong and selective RRE binder, the fluorescently labeled peptide will be released from the beads into solution and the filtrate will become fluorescent.
The basic principle of the assay systems used to identify compounds that inhibit binding of Rev to RRE or compounds that interact with RRE involves preparing a reaction mixture containing the target (e.g., RRE) and the binding partner (e.g., labeled-Rev) under conditions and for a time sufficient to allow the two to interact and bind, thus form a complex. In order to test a compound for inhibitory activity, the reaction mixture is prepared in the presence and absence of the test compound. The test compound can be initially included in the reaction mixture, or can be added at a time subsequent to the addition of the RRE and its binding partner, Rev. Control reaction mixtures are incubated without the test compound or with a placebo. The presence of labeled-Rev that is not bound to RRE over that amount found in a control or standard sample is indicative of a test compound that competes with Rev for binding to RRE.
A novel solid-phase assembly was used to evaluate the RNA specificity of the new derivatives. This assay relies on the displacement of a fluorescent Rev peptide from a solid-phase immobilized RRE and can be performed in the presence of competing nucleic acids. Table 4 (columns b-d) summarizes the IC50 values determined by this method. By comparing IC50 values measured in the absence of any competitors to the values measured in the presence of DNA or RNA, a quantitative measure for the relative selectivity of each ligand can be made. Aminoglycosides have a substantial affinity to poly A-poly U duplex RNA (compare column b to c, Table 4). […] For neomycin, this ratio increases upon guanidinylation, indicating a lower RRE selectivity. […]

[2] = molecular target: HIV-1 Rev protein RNA recognition element (RRE); assay: Fluorescence anisotropy: displacement of fluorescein-labeled Rev peptide from the RRE in solution; type: binding; conditions: for increase in inhibitory activity upon guanidinylation relative to the parent compound: fluorescence anisotropy IC50, guanidinylated vs parent
Source text: In a modification of the above assay, the solid support aspect of the above embodiment is removed. The biophysical characteristics of potential inhibitory test compounds can be detected by fluorescence anisotropy as depicted in FIG. 5. The RRE-bound fluorescent peptide has a slower Brownian tumbling motion relative to the free peptide in solution. Upon displacement of the fluorescently labeled Rev from the RRE by a competing inhibitor, a decrease in the anisotropy value is observed. The displacement of the labeled-Rev can be followed by monitoring the anisotropy at the emission wavelength of the Rev34-50-bound fluorophore.
The HIV-1 Rev-RRE interaction was used to examine the impact of guanidinylation upon RNA binding, and to probe the potential antiviral activity of these compounds. The binding of Rev to the RRE (Rev response element) is responsible for the export of unspliced and singly spliced HIV genomic RNA out of the host nucleus. This essential protein-RNA interaction remains an important, and nonutilized, therapeutic target. The high-affinity Rev binding site on the RRE has been localized to the purine-rich bulge. The binding of Rev to the RRE is governed by the arginine-rich fragment, Rev34-50. Key guanidinium groups make direct contacts with the RNA platform and are essential for the specific binding of Rev to the RRE. Fluorescence anisotropy has been employed to determine the affinity of the new derivatives to the RRE in solution. The RRE-bound fluorescent Rev peptide has a slower Brownian tumbling motion relative to the free peptide. Upon displacement of the fluorescein-labeled Rev peptide from the RRE by an inhibitor, a decrease in the anisotropy value is observed. Table 4 (column a) compares the IC50 values of the guanidinoglycosides to the aminoglycosides. Guanidinylation of kanamycin A, kanamycin B, and tobramycin results in a greater than 10-fold increase in inhibitory activity relative to the parent compounds. A 5-fold increase in activity is observed upon guanidinylation of neomycin B and paromomycin.

HIV-1 = assay: Inhibition of viral replication in HIV-1-infected CD4+ HeLa cells (plaque formation); type: cell-based
Procedure: By converting aminoglycosides into guanidinoglycosides the biological activities of these glycosides were dramatically affected. Neomycin B was reported to be an in vivo and in vitro inhibitor of Rev-RRE binding, as well as an effective inhibitor of HIV-1 replication in vivo. The ability of guanidinoneomycin B and guanidinotobramycin to inhibit viral replication in HIV-1-infected CD4+ HeLa cells was measured and compared to the antiviral activities of neomycin B and tobramycin (FIG. 6). As evidenced by the dose-dependent decrease in plaque formation, the guanidinoglycosides inhibit HIV replication with activities approximately 100 times higher than their amino precursors (FIG. 6). The antiviral activity of the guanidinoglycosides may be related to their ability to bind the RRE with high affinity and specificity, thus preventing the HIV-1 Rev-RRE interaction and viral replication.

[3] = 15 ug/mL plasmid DNA (pGEM), read-out: IC50 (d) Solid-Phase + DNA
[4] = 15 ug/mL polyA-polyU duplex RNA, read-out: IC50 (c) Solid-Phase + poly A polyU
[5] = Solid Phase Assay, competing DNA (Table 2), read-out: IC50 with DNA
[6] = Solid Phase Assay, competing tRNA (Table 2), read-out: IC50 with tRNA
[7] = Solid Phase Assay, no competitor (Table 2), read-out: IC50
[8] = Solid-phase, no competitor (Table 4), read-out: IC50 (b) Solid-Phase
[9] = Fluorescence Anisotropy (Table 4), read-out: IC50 (a) Anisotrophy
[10] = Fluorescence Anisotropy, guanidino form of the glycoside (Table 3), read-out: IC50 (uM) guandino form
[11] = Fluorescence Anisotropy, amino form of the glycoside (Table 3), read-out: IC50 (uM) amino form

## N=C(N)NCC1OC(OC2C(NC(=N)N)CC(NC(=N)N)C(OC3OC(CO)C(O)C(NC(=N)N)C3O)C2O)C(NC(=N)N)CC1O (centres unmarked) [guanidino-tobramycin]
[1]; [3]
  IC50: 3.5 µM
[1]; [4]
  IC50: 5 µM
[1]
  (e) Ratio (c)/(b): 1.7
[1]; [5]
  IC50: 3 µM
[1]; [6]
  IC50: 3.5 µM
[1]; [7]
  IC50: 2.5 µM
[1]; [8]
  IC50: 3 µM
[1]; solid phase assay
  more active when compared to tobramycin that has not been guanidinylated: about 20 fold
  activity in the presence of competing nucleic acids: approximately the same activity in the presence of both competing DNA and tRNA
[2]; [9]
  IC50: 3.8 µM
[2]; [10]
  IC50: 0.65 µM
HIV-1
  inhibition of HIV replication, activity relative to parent aminoglycoside: approximately 100 times

## NC[C@H]1O[C@H](O[C@H]2[C@H](O)[C@@H](O[C@H]3O[C@H](CO)[C@@H](O)[C@H](N)[C@H]3O)[C@H](N)C[C@@H]2N)[C@H](O)[C@@H](O)[C@@H]1O [KanamycinA, Kanamycin A]
[1]; [3]
  IC50: 750 µM
[1]; [4]
  IC50: 1300 µM
[1]
  (e) Ratio (c)/(b): 1.9
  change of ratio (c)/(b) upon guanidinylation: decreases
[1]; [8]
  IC50: 700 µM
[2]; [9]
  IC50: 750 µM
[2]; [11]
  IC50: 100 µM

## NC[C@H]1O[C@H](O[C@H]2[C@H](O)[C@@H](O[C@H]3O[C@H](CO)[C@@H](O)[C@H](N)[C@H]3O)[C@H](N)C[C@@H]2N)[C@H](N)C[C@@H]1O [Tobramycin]
[1]; [3]
  IC50: 50 µM
[1]; [4]
  IC50: 140 µM
[1]
  (e) Ratio (c)/(b): 3.1
  change of ratio (c)/(b) upon guanidinylation: decreases
[1]; [5]
  IC50: 55 µM
[1]; [6]
  IC50: 1.1 µM
[1]; [7]
  IC50: 50 µM
[1]; [8]
  IC50: 45 µM
[1]; solid phase assay
  activity in the presence of competing nucleic acids: significantly lower activity in the presence of tRNA
[2]; [9]
  IC50: 44 µM
[2]; [11]
  IC50: 10 µM

## NC(N)=NC[C@@H]1O[C@H](O[C@H]2[C@H](O)[C@@H](O[C@H]3O[C@@H](CO)[C@H](O)[C@@H](N=C(N)N)[C@@H]3O)[C@H](N=C(N)N)C[C@@H]2N=C(N)N)[C@@H](O)[C@H](O)[C@H]1O [guanidino-kanamycinA, Guanidino Kanamycin A]
[1]; [3]
  IC50: 55 µM
[1]; [4]
  IC50: 60 µM
[1]
  (e) Ratio (c)/(b): 1.2
[1]; [8]
  IC50: 50 µM
[2]; [9]
  IC50: 65 µM
[2]; [10]
  IC50: 8 µM

## N=C(N)NCC1OC(OC2C(NC(=N)N)CC(NC(=N)N)C(OC3OC(CO)C(O)C(NC(=N)N)C3O)C2O)C(NC(=N)N)C(O)C1O (centres unmarked) [guanidino-kanamycinB, Guanidino Kanamycin B]
[1]; [3]
  IC50: 3.5 µM
[1]; [4]
  IC50: 4.7 µM
[1]
  (e) Ratio (c)/(b): 1.6
[1]; [8]
  IC50: 3 µM
[2]; [9]
  IC50: 3.5 µM

## N=C(N)NCC1OC(OC2C(CO)OC(OC3C(O)C(NC(=N)N)CC(NC(=N)N)C3OC3OC(CO)C(O)C(O)C3NC(=N)N)C2O)C(NC(=N)N)C(O)C1O (centres unmarked) [guanidino-paromomycin, Guanidino Paromomycin]
[1]; [3]
  IC50: 16 µM
[1]; [4]
  IC50: 20 µM
[1]
  (e) Ratio (c)/(b): 1.4
[1]; [8]
  IC50: 14 µM
[2]; [9]
  IC50: 18 µM

## NC[C@@H]1O[C@H](O[C@H]2[C@@H](O)[C@H](O[C@@H]3[C@@H](O)[C@H](N)C[C@H](N)[C@H]3O[C@H]3O[C@H](CN)[C@@H](O)[C@H](O)[C@H]3N)O[C@@H]2CO)[C@H](N)[C@@H](O)[C@@H]1O [Neomycin B, Neomycin]
[1]; [3]
  IC50: 8 µM
[1]; [4]
  IC50: 16 µM
[1]
  (e) Ratio (c)/(b): 2.7
  change of ratio (c)/(b) upon guanidinylation: increases
[1]; [8]
  IC50: 6 µM
[2]; [9]
  IC50: 6 µM
[2]; [11]
  IC50: 1 µM
[2]
  increase in inhibitory activity upon guanidinylation relative to the parent compound: 5 fold

## NC[C@@H]1O[C@H](O[C@H]2[C@@H](O)[C@H](O[C@@H]3[C@@H](O)[C@H](N)C[C@H](N)[C@H]3O[C@H]3O[C@H](CO)[C@@H](O)[C@H](O)[C@H]3N)O[C@@H]2CO)[C@H](N)[C@@H](O)[C@@H]1O [Paromomycin]
[1]; [3]
  IC50: 60 µM
[1]; [4]
  IC50: 110 µM
[1]
  (e) Ratio (c)/(b): 2.0
  change of ratio (c)/(b) upon guanidinylation: decreases
[1]; [8]
  IC50: 55 µM
[2]; [9]
  IC50: 65 µM
[2]
  increase in inhibitory activity upon guanidinylation relative to the parent compound: 5 fold

## N=C(N)NC[C@@H]1O[C@H](O[C@H]2[C@@H](O)[C@H](O[C@@H]3[C@@H](O)[C@H](NC(=N)N)C[C@H](NC(=N)N)[C@H]3O[C@H]3O[C@H](CNC(=N)N)[C@@H](O)[C@H](O)[C@H]3NC(=N)N)O[C@@H]2CO)[C@H](NC(=N)N)[C@@H](O)[C@@H]1O [guanidino-neomycin B, Guanidino Neomycin]
[1]; [3]
  IC50: 0.9 µM
[1]; [4]
  IC50: 4.5 µM
[1]
  (e) Ratio (c)/(b): 5.6
[1]; [8]
  IC50: 0.8 µM
[2]; [9]
  IC50: 1.3 µM
[2]; [10]
  IC50: 0.2 µM
HIV-1
  inhibition of HIV replication, activity relative to parent aminoglycoside: approximately 100 times

## NC[C@H]1O[C@H](O[C@H]2[C@H](O)[C@@H](O[C@H]3O[C@H](CO)[C@@H](O)[C@H](N)[C@H]3O)[C@H](N)C[C@@H]2N)[C@H](N)[C@@H](O)[C@@H]1O [KanamycinB, Kanamycin B]
[1]; [3]
  IC50: 90 µM
[1]; [4]
  IC50: 160 µM
[1]
  (e) Ratio (c)/(b): 2.0
  change of ratio (c)/(b) upon guanidinylation: decreases
[1]; [8]
  IC50: 80 µM
[2]; [9]
  IC50: 80 µM
